Measured values reported in US3985888A, “Methods of inducing sedation using certain spiroalkanone-imides” (Richardson-Merrell Inc., priority 1971, dated 1976).
“Also recorded” adds a separate entry of the source. Read-outs that look alike come from different tables or passages of the source.

Assays:
[1] = sedative / central nervous system depressant properties; type: in vivo; conditions: in words
[2] = tested on: mice; experiment: spontaneous locomotor activity in the photocell chamber; type: in vivo; conditions: for ED50: Mus musculus, read-out: Spontaneous Locomotor Activity: Depressant Dose 50% (dose reducing activity to 50 percent of control)
[3] = motor coordination, rotorod method; type: in vivo; conditions: mouse, mice; for TD50: read-out: Loss of Motor Coordination, ED50; for NOAEL: read-out: dose until which there is no significant impairment of motor coordination (rotorod)
Description: There is no significant impairment of motor coordination as determined with the rotorod method (Kinnard, W. J. and Carr, C. J., J. Pharmacol. Exptl. Therap., 121: 354 (1957)), on the other hand, until doses of 900 mg/kg, p.o. or 500-900 mg/kg i.p. have been administered.

[4] = tested on: mice; experiment: protection against maximal electroshock; type: in vivo; conditions: Mus musculus, read-out: Anticonvulsant Protective Dose, 50% (Maximum Electroshock)
[5] = tested on: mice; experiment: prolongation of loss of the righting reflex produced by barbital or hexobarbital; type: in vivo; conditions: i.p., appropriate doses of barbital or hexobarbital
[6] = acute LD50; conditions: mouse, in vivo, mice

O=C1CCC2(CC(=O)c3ccccc32)C(=O)N1 (centres unmarked) [Example 13, spiro-[indane-1,3'-piperidine]-2,3,6'-trione]
sedative properties [1]: has sedative properties

CCN1C(=O)CCC2(CCC(=O)c3ccccc32)C1=O (centres unmarked) [Example 6, 1'-ethyl-2,3-dihydrospiro-[naphthalene-1(4H),3'-piperidine]-2',4,6'-trione]
sedative properties [1]: has sedative properties

Cc1cccc2c1C1(CCC2=O)CCC(=O)N(C)C1=O (centres unmarked) [Example 16, 2,3-dihydro-1',8-dimethylspiro-[naphthalene-1(4H),3'-piperidine]-2',4,6'-trione]
sedative properties [1]: has sedative properties

COc1cc2c(cc1OC)C1(CCC2=O)CCC(=O)N(C)C1=O (centres unmarked) [Example 12, 2,3-dihydro-6,7-dimethoxy-1'-methylspiro-[naphthalene-1(4H),3'-piperidine]-2',4,6'-trione]
sedative properties [1]: has sedative properties

COc1ccc2c(c1)C(=O)CCC21CCC(=O)N(C)C1=O (centres unmarked) [Example 8, 2,3-dihydro-6-methoxy-1'-methylspiro[naphthalene-1(4H),3'-piperidine]-2',4,6'-trione]
sedative properties [1]: has sedative properties

COc1cc2c(cc1OC)C1(CCC(=O)NC1=O)CCC2=O (centres unmarked) [Example 11, 2,3-dihydro-6,7-dimethoxyspiro-[naphthalene-1(4H),3'-piperidine]-2',4,6'-trione]
sedative properties [1]: has sedative properties

O=C1CCC2(CCC(=O)c3ccccc32)C(=O)N1 (centres unmarked) [Example 1, 2,3-dihydrospiro-[naphthalene-1(4H),3'-piperidine]-2',4,6'-trione]
ED50 ([2]; ip): 50 to 60 mg/kg
ED50 ([2]; po): 150 mg/kg
Spontaneous Locomotor Activity: Depressant Dose 50% (dose reducing activity to 50 percent of control) ([2]; i.p.): 50 to 60 mg/kg
TD50 ([3]; ip, i.p.): 500 to 900 mg/kg
NOAEL ([3]; ip, i.p.): 500 to 900 mg/kg
TD50 ([3]; oral): 900 mg/kg
NOAEL ([3]; po, p.o.): ≥ 900 mg/kg
ED50 ([4]; ip): 160 to 170 mg/kg
ED50 ([4]; po): 120 mg/kg
dose that significantly prolongs loss of the righting reflex produced by barbital or hexobarbital [5]: about 300 mg/kg
LD50 ([6]; ip, intraperitoneally): > 2000 mg/kg
LD50 ([6]; po, orally): > 2000 mg/kg
central nervous system depressant properties [1]: central nervous system depressant properties

O=C1CCC2(CCC(=O)c3cc(Cl)ccc32)C(=O)N1 (centres unmarked) [Example 17, 6-chloro-2,3-dihydrospiro[naphthalene-1(4H),3'-piperidine]-2',4,6'-trione]
sedative properties [1]: has sedative properties

Cc1cccc2c1C1(CCC(=O)NC1=O)CCC2=O (centres unmarked) [Example 15, 2,3-dihydro-8-methylspiro-[naphthalene-1(4H),3'-piperidine]-2',4,6' -trione]
sedative properties [1]: has sedative properties

CN1C(=O)CCC2(CCC(=O)c3cc(Cl)ccc32)C1=O (centres unmarked) [Example 18, 6-chloro-2,3-dihydro-1'-methylspiro[naphthalene-1(4H),3'-piperidine]-2',4,6'-trione]
ED50 ([2]; po): 13 mg/kg
activity compared with the known compound (Example 1) ([2]; in words, as shown in the table): substantially greater activity
TD50 ([3]; oral): 285 mg/kg
sedative properties [1]: has sedative properties; also recorded: particularly useful as a sedative

Cc1ccc2c(c1)C(=O)CCC21CCC(=O)N(C)C1=O (centres unmarked) [Example 10, 1',6-dimethyl-2,3-dihydrospiro-[naphthalene-1(4H),3'-piperidine]-2',4,6'-trione]
sedative properties [1]: has sedative properties

O=C1CCC2(CCC(=O)c3cc([N+](=O)[O-])ccc32)C(=O)N1 (centres unmarked) [Example 19, 2,3-dihydro-6-nitrospiro-[naphthalene-1(4H),3'-piperidine]-2',4,6'-trione]
sedative properties [1]: has sedative properties

O=C1CC2(CCC(=O)c3ccccc32)C(=O)N1 (centres unmarked) [Example 14, 2,3-dihydrospiro[naphthalene-1(4H),3'-pyrrolidine]-2',4,5'-trione]
sedative properties [1]: has sedative properties

Cc1ccc2c(c1)C(=O)CCC21CCC(=O)NC1=O (centres unmarked) [Example 9, 2,3-dihydro-6-methylspiro[naphthalene-1(4H),3'-piperidine]-2',4,6'-trione]
sedative properties [1]: has sedative properties
